These results are taken from paper PMC11050087, “Polyphenols from Maackia amurensis Heartwood Protect Neuronal Cells from Oxidative Stress and Prevent Herpetic Infection” (International Journal of Molecular Sciences, 2024).

Several values for one entry are separate records, joined by “and”; a condition that tells them apart may be missing. Equal values may be shown once. Read-outs that look alike come from different tables or passages of the source.

The test system of test [1] is 6-OHDA-treated Neuro-2a cells. The test is described as follows: ROS analysis in 6-OHDA-treated cells (H2DCF-DA). As to conditions: compound 0.1 µM. In kind it is cell-based, murine. The method, then: We studied the effect of polyphenolic compounds set on ROS levels in 6-OHDA-treated Neuro-2a cells (Figure 5a–d).
Figure 5 The effect of polyphenolic compounds isolated from M. amurensis heartwood on ROS levels in Neuro-2a cells treated with 6-OHDA (120 μM) (a–d). Polyphenolic compounds isolated from M. amurensis heartwood were used at concentrations 10, 1, 0.1 μM. The data are presented as means ± SEM of three independent replicates.
After 24 h of adhesion, Neuro-2a cells (5 × 10^4 cells/mL) were incubated with polyphenolic compounds at concentrations of 0.1, 1, and 10 µM for 1 h. Then, 120 µM of 6-OHDA or 1 mM of PQ were added to each well, and cells were incubated for 1 h. To study the ROS formation, 20 µL of 2,7-dichlorodihydrofluorescein diacetate solution (H2DCF-DA, Sigma-Aldrich, St. Louis, MO, USA) were added to each well, so that the final concentration was 10 µM. Then, the microplate was incubated for 30 min at 37 °C.

Test [2] concerns 6-OHDA-treated Neuro-2a cells. The test is described as follows: Mitochondrial membrane potential detection (TMRM) in 6-OHDA-treated cells. It counts as cell-based, murine. As to conditions: compound 10 µM, 6-OHDA 120 µM. Here is the method:
We determined the effect of polyphenolic compounds from M. amurensis on 6-OHDA-induced mitochondrial dysfunction in Neuro-2a cells (Figure 6a,b).
Figure 6 The effect of polyphenolic compounds isolated from M. amurensis heartwood on mitochondrial membrane potential in Neuro-2a cells treated with 6-OHDA (120 μM) (a,b). Polyphenolic compounds isolated from M. amurensis heartwood were used at concentrations 10, 1, 0.1 μM. The data are presented as means ± SEM of three independent replicates. (*) and (***) indicate, respectively, p < 0.05 and p < 0.001 versus 6-OHDA-treated cells.
The cells were incubated for 1 h in a 96-well plate (1 × 10^4 cells/well) with polyphenolic compounds (0.1, 1 and 10 µM). Then, 6-OHDA (120 µM) was added, and cell suspension was incubated for 1 h. Cells incubated without 6-OHDA and compounds and with 6-OHDA alone were used as positive and negative control, respectively. The tetramethylrhodamine methyl (TMRM) (Sigma-Aldrich, St. Louis, MO, USA) solution (500 nM) was added to each well and cells were incubated for 30 min at 37 °C. The intensity of fluorescence was measured using a PHERAstar FSplate reader (BMG Labtech, Ortenberg, Germany) at λex = 540 nm and λem = 590 nm. The data were processed by MARS Data Analysis v. 3.01R2 (BMG Labtech, Ortenberg, Germany).

Test [3] relates to HSV-1. The test is described as follows: Virucidal activity, RT-PCR assay (HSV-1 pretreated with compounds). As to conditions: for Ct: 72 h; for log10: log10 of 2^−ΔCt; for 2^−ΔCt: relative level of viral DNA vs virus control; for −ΔCt: vs virus control. In kind it is cell-based, HSV-1 strain L2. The method, then: Vero cells grown on 96-well plates were infected with the virus (100 TCID50/mL), pretreated with polyphenolic compounds at concentrations 0.1, 1 and 10 μg/mL. After 72 h of cell incubation, viral DNA was extracted from the supernatants, and the relative level of HSV-1 DNA was determined using RT-PCR. The effect of polyphenols on the relative level of viral DNA was assessed using the 2^−∆Ct method and reported as fold reduction compared to virus control.
(§1) The HSV-1 strain L2 obtained from N.F. Gamaleya Federal Research Centre for Epidemiology and Microbiology (Moscow, Russia) was grown in Vero cells as previously described.
(§2) We determined the direct inhibitory effect of polyphenolic compounds from M. amurensis heartwood on HSV-1 (virucidal effect). We mixed the virus at an infectious dose (100 TCID50/mL) with polyphenolic compounds (from 0.1 to 100 µg/mL) at a ratio of 1:1 (v/v) and incubated for an hour at 37 °C. Then, we infected the monolayer of Vero cells grown on 96-well plates (1 × 10^4 cells/well) with HSV-1 pretreated with the studied compounds. After 1 h adsorption at 37 °C, the cells were washed with phosphate-buffered saline (PBS) and overlaid by the maintenance medium with 1% FBS. The plates were incubated for 72 h at 37 °C in a CO2-incubator. The cytopathic effect (CPE) inhibition assay and real-time reverse transcription-PCR (RT-PCR) assay were used to evaluate virucidal effect of the tested compounds.
We performed the RT-PCR assay as we previously described in detail in [22]. Briefly, HSV-1 DNA was extracted after incubation from cell supernatants by using the DNA-sorb-AM (K1-12-100-CE) nucleic acid extraction kit (AmpliSens®, Moscow, Russia) according to the manufacturer′s instructions. We treated the supernatants with a lysis solution that contained guanidine chloride (chaotropic agent) in the presence of sorbent (silica particles). As the elution solution was added, the DNA was […] silica particles and separated from the sorbent particles by centrifugation.
We detected the DNA of HSV-1 in the obtained samples using the AmpliSens® HSV I, II-FRT-100F PCR kit (AmpliSens®, Moscow, Russia) on a real-time PCR instrument Rotor-Gene Q (Qiagen, Hilden, Nordrhein-Westfalen, Germany) according to the manufacturer′s instructions. The PCR reaction conditions were the following: initial denaturation at 95 °C for 15 min; then 5 cycles at 95 °C for 5 s, at 60 °C for 20 s, at 72 °C for 15 s; then 40 cycles at 95 °C for 5 s, at 60 °C for 20 s, and at 72 °C for 15 s. A negative sample was used as the amplification control for each run. The threshold cycle number Ct, was measured as the PCR cycle, where the amount of the amplified target reached the threshold value; the Ct values ≥ 37 indicated the absence of the HSV-1 DNA in the samples. We assessed the anti-HSV-1 activity of the studied compounds by the reduction in the viral DNA levels using the 2^−ΔCt method according to Equation (2):(2) ΔCt=Ctcv−Cttv where Ct is the threshold cycle number measured as the PCR cycle, where the amount of the amplified target reached the threshold value, […]

The test system of test [4] is 6-OHDA-treated Neuro-2a cells. As to the kind of experiment: Apoptosis profile by flow cytometry (Annexin V & Dead Cell Kit). It counts as cell-based, murine. As to conditions: Table 1; polyphenols 10 µM, 6-OHDA 100 µM, 24 h; mean. The method, then:
We investigated the effect of polyphenolic compounds from M. amurensis on apoptosis profile in 6-OHDA-treated Neuro-2a cells by flow cytometry using fluorescent annexin V conjugate as a fluorescent dye. We observed significant changes in apoptosis profile in Neuro-2a cells after 6-OHDA-treatment. […] Polyphenols 3, 6 and 13 diminished the neurotoxic effect of 6-OHDA-treatment.
The cells were incubated for 1 h in a 6-well plate (5 × 10^4 cells/mL) with polyphenolic compounds (10 µM). Then, 6-OHDA (100 µM) was added, and cell suspension was incubated for 24 h. After incubation, the maintenance media was collected, and the cells were washed by cold PBS twice and incubated with trypsin-EDTA solution. The cell suspension was washed with cold PBS twice again, centrifugated and then used for apoptosis detection by Muse® Annexin V & Dead Cell Kit in accordance with the manufacturer’s instructions (Luminex, Austin, TX, USA). The fluorescence was measured with Muse® Cell Analyzer (Luminex, Austin, TX, USA) and the data were processed by Muse 1.5 Analysis software (Luminex, Austin, TX, USA).

The subject of test [5] is HSV-1. As to the kind of experiment: Virucidal activity, CPE inhibition assay (HSV-1 pretreated with compounds). It counts as cell-based, HSV-1 strain L2. Here is the method:
The antiviral activity of polyphenols from M. amurensis against HSV-1 was assessed using the cytopathic effect inhibition (CPE) assay. To study the inhibitory effect of polyphenolic compounds directly on the HSV-1 virus (direct virucidal activity), the monolayer of Vero cells grown on 96-well plates (1 × 10^4 cells/well) was infected with the virus (100 TCD50/mL), pretreated with different concentrations of polyphenolic compounds.
as §1, §2
We previously described this method in detail in [22]. We performed the MTT assay to evaluate the antiviral activity of polyphenolic compounds. The viral inhibition rate (IR, %) was calculated according to Equation (1):(1) IR, %=Atv−Acv/Acd−Acv×100, where Atv is the absorbance of cells infected with HSV-1 pretreated with the studied compounds,
We calculated the selectivity index (SI) as the ratio of CC50 to IC50. Experiments were repeated three times.

In test [6] the test system is HSV-1. As to the kind of experiment: Treatment of virus-infected cells with polyphenols, CPE inhibition assay. In kind it is cell-based, HSV-1 strain L2. Here is the method:
In order to study the mechanism of action of these compounds, two additional schemes of treatment of the virus and Vero cells with polyphenols were applied: the compounds were added before virus infection (pretreatment of cells) and after penetration of the virus into host cells (treatment of infected cells). The fourth method of exposure where the virus and polyphenols were added to cells simultaneously (simultaneous treatment) was previously described by us in [22]. The anti-HSV-1 activity of polyphenols was assessed using the cytopathic effect inhibition (CPE) assay.
The monolayer of cells was infected with the virus (100 TCID50/mL) at 37 °C for 1 h, and then the cells were washed with PBS (Sigma, Saint-Louis, MO, USA) and treated with different concentrations of the studied compounds and incubated until CPE appeared.

For test [7], the system named is HSV-1. More on the design: method as in PMID 36985562. As to conditions: ref [22], cited from earlier work.
In test [8] the test system is 6-OHDA-treated Neuro-2a cells. As to the kind of experiment: 6-OHDA-induced neurotoxicity model, cell viability test (MTT). In kind it is cell-based, murine. As to conditions: compounds at 10, 1, 0.1 µM; 6-OHDA 100 µM. Here is the method:
Neuro-2a cells were incubated with the studied polyphenolic compounds for 1 h. Then, 100 µM of 6-hydroxydopamine 6-OHDA were added. We determined the percentage of living Neuro-2a cells after treatment with 6-OHDA (Figure 4a–d).
Figure 4 The effect of polyphenolic compounds isolated from M. amurensis heartwood on the viability of Neuro-2a cells treated with 6-OHDA (100 μM) (a–d). The viability of Neuro-2a cells treated with various compounds and 6-OHDA was measured by the MTT assay. Polyphenolic compounds isolated from M. amurensis heartwood were used at concentrations 10, 1, 0.1 μM. The data are presented as means ± SEM of three independent replicates. (*) indicate p < 0.05 versus 6-OHDA-treated cells.
After 24 h of adhesion, Neuro-2a cells (5 × 10^4 cells/mL) were treated with polyphenolic compounds at concentrations of 0.1, 1 and 10 μM for 1 h. Then, 100 µM of 6-OHDA or 1 mM of PQ (Sigma-Aldrich, St. Louis, MO, USA) were added. Cells incubated without inductors or with inductors were used as positive and negative control, respectively. Cell viability was measured after 24 h using the MTT assay.

As to retusin [Compound 3], in test [1], the “inhibition of ROS formation in 6-OHDA-treated Neuro-2a cells (in words)” value is “considerably inhibited ROS formation”. Besides, in test [2], the “effect on mitochondrial membrane potential (in words)” value is reported as “weak activity”. Moreover, in the test with HSV-1 [3] (0.1, 1 and 10 µg/mL), the “virucidal activity against HSV-1 by RT-PCR (in words)” value is on record as “did not demonstrate virucidal activity”. In addition, in test [4], the Dead turned out to be 1.18 ± 0.24%, the Early apop. is reported as 19.63 ± 0.79 %, the “Late apop./Dead” value was 11.31 ± 0.49% and the Live is reported as 67.89 ± 1.52 %. Also, the “virucidal activity against HSV-1 (in words)” value in the test on HSV-1 [5] (CPE assay, virus pretreated with compound) was “did not show virucidal activity”.

`Nc1nc2c(ncn2COCCO)c(=O)[nH]1` [Acyclovir, reference compound]: the IC50 was 0.4 µg/mL and 1.8 µM in the test on HSV-1 [6] (Human alphaherpesvirus 1, compound added after virus adsorption and penetration, CPE assay); 9.3 ± 1.3 µM with HSV-1 [7] (virus and compound added to cells simultaneously, CPE assay, read-out: Simultaneous Treatment IC50). Moreover, the “Treatment of Infected Cells SI” value in the test on HSV-1 [6] (ratio of CC50 to IC50) was over 2500. In the test with HSV-1 [7] (ratio of CC50 to IC50), the “Simultaneous Treatment SI” value was 430. In addition, the “Simultaneous Treatment IC50” value in the test on HSV-1 [7] (virus and compound added to cells simultaneously, CPE assay) was 2.1 ± 0.3 µg/mL.

medicarpin [Compound 7]: in test [8], the “effect on viability of 6-OHDA-treated Neuro-2a cells (in words)” value is recorded as “weak effect on cell viability”. Further, the “increase of mitochondrial membrane potential” value in test [2] (TMRM) is recorded as 8–12%. In the test on HSV-1 [3] (0.1 µg/mL), the Ct was found to be 18.1 ± 2.2, the log10 is 0, the “2^−ΔCt” value came to 1.0 and the “−ΔCt” value came out at 0. In the test with HSV-1 [3] (1 µg/mL), the Ct was 18.3 ± 2.2, the log10 is −0.060 ± 0.008, the “2^−ΔCt” value came out at 0.870 ± 0.11 and the “−ΔCt” value was −0.20 ± 0.02. In addition, in the test on HSV-1 [3] (10 µg/mL), the “anti-HSV-1 activity by RT-PCR (in words)” value is listed as “moderate anti-HSV-1 activity”, the Ct is given as 19.8 ± 2.4, the log10 is given as −0.50 ± 0.06 and the “2^−ΔCt” value came to 0.297 ± 0.04. For the same compound, the “−ΔCt” value with HSV-1 [3] (10 µg/mL) is −1.75 ± 0.20. Further, in the test on HSV-1 [5] (ratio of CC50 to IC50, virucidal scheme), the SI was 2.1 ± 0.3.
